Where only a bound is given, the exact number is not on record here.

Sequence of CRBN truncate (318-426) (Q96SW2 318-426): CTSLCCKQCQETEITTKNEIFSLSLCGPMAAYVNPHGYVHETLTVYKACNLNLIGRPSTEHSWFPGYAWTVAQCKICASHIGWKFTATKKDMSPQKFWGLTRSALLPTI

This test addresses CRBN truncate (318-426) (Homo sapiens (Human), UniProt Q96SW2). Kind of test: Measurement of molecular interactions using surface plasmon resonance (SPR), Biacore T200. As to conditions: 25° C., immobilized CRBN truncate, upper limit of measurement 200 μM. Type of test: binding. In a few lines:
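C-terminally Avi-tagged CRBN (318-426) captured on a streptavidin SA chip on a Biacore T200. Running buffer 10 mM HEPES pH 7.5, 150 mM NaCl, 1 mM TCEP, 0.005% Tween 20, 2% DMSO; 60 s contact, 120 s dissociation.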
Broadly, the Kd is the equilibrium constant for the complex coming apart. A low value points to a tighter complex. As for `Nc1ccc(N2CCC(N3CCCC(=O)NC3=O)C2=O)cc1` (centres unmarked) [Example 297, 1-[1-(4-Aminophenyl)-2-oxopyrrolidin-3-yl]-1,3-diazepane-2,4-dione], the equilibrium dissociation constant (Kd) is at least 100 µM. On to `CC(C)(C)OC(=O)CCCCCNc1ccc(C(=O)N2CCC3(CCCC(=O)NC3=O)C2)cc1` (centres unmarked) [Example 300, tert-Butyl 6-[4-(6,8-dioxo-2,7-diazaspiro[4.6]undecane-2-carbonyl)anilino]hexanoate], for which the Kd is under 50 µM.

In turn, `CC(C)(C)OC(=O)NCCCCCCCNc1ccc2nc(N3CCCC(=O)NC3=O)sc2c1` [Example 303, tert-Butyl N-[7-[[2-(2,4-dioxo-1,3-diazepan-1-yl)-1,3-benzothiazol-6-yl]amino]heptyl]carbamate] came in with an equilibrium dissociation constant (Kd) of at least 100 µM. In turn, `CC(C)(C)[Si](C)(C)OC1c2cccc(Br)c2CC1N1CC=CC(=O)NC1=O` (centres unmarked) [Example 307] gave a Kd of at least 100 µM.

Turning to `Cc1sc2c(c1C)C(c1ccc(Cl)cc1)=N[C@@H](CC(=O)NCCCCCCc1cccc(C(=O)N3CCC4(CCCC(=O)NC4=O)C3)c1)c1nnc(C)n1-2` (stereo partly drawn) [Example 308, 2-[(9S)-7-(4-chlorophenyl)-4,5,13-trimethyl-3-thia-1,8,11,12-tetraazatricyclo[8.3.0.02,6]trideca-2(6),4,7,10,12-pentaen-9-yl]-N-[6-[3-(6,8-dioxo-2,7-diazaspiro[4.6]undecane-2-carbonyl)phenyl]hexyl]acetamide], the dissociation constant Kd was at least 100 µM. For `Cc1sc2c(c1C)C(c1ccc(Cl)cc1)=N[C@@H](CC(=O)NCCCCCCCCN1CC3(CC(=O)N(C4CCC(=O)NC4=O)C3=O)C1)c1nnc(C)n1-2` (stereo partly drawn) [Example 309, 2-[(9S)-7-(4-chlorophenyl)-4,5,13-trimethyl-3-thia-1,8,11,12-tetraazatricyclo[8.3.0.02,6]trideca-2(6),4,7,10,12-pentaen-9-yl]-N-[8-[6-(2,6-dioxopiperidin-3-yl)-5,7-dioxo-2,6-diazaspiro[3.4]octan-2-yl]octyl]acetamide] the value was at least 100 µM. For `Cc1sc2c(c1C)C(c1ccc(Cl)cc1)=N[C@@H](CC(=O)NCCCCCCCc1cn(C3CCCC(=O)NC3=O)nn1)c1nnc(C)n1-2` (stereo partly drawn) [Example 310, 2-[(9S)-7-(4-chlorophenyl)-4,5,13-trimethyl-3-thia-1,8,11,12-tetraazatricyclo[8.3.0.02,6]trideca-2(6),4,7,10,12-pentaen-9-yl]-N-[7-[1-(2,7-dioxoazepan-3-yl)triazol-4-yl]heptyl]acetamide] the value was at least 100 µM; for `Cc1sc2c(c1C)C(c1ccc(Cl)cc1)=N[C@@H](CC(=O)NCCCCCCc1ccc(S(=O)(=O)N(C)C3CCCC(=O)NC3=O)cc1)c1nnc(C)n1-2` (stereo partly drawn) [Example 311, 2-[(9S)-7-(4-chlorophenyl)-4,5,13-trimethyl-3-thia-1,8,11,12-tetraazatricyclo[8.3.0.02,6]trideca-2(6),4,7,10,12-pentaen-9-yl]-N-[6-[4-[(2,7-dioxoazepan-3-yl)-methylsulfamoyl]phenyl]hexyl]acetamide], under 50 µM; for `Cc1sc2c(c1C)C(c1ccc(Cl)cc1)=N[C@@H](CC(=O)NCCCCCCCNc1ccc3nc(N4CCCC(=O)NC4=O)sc3c1)c1nnc(C)n1-2` [Example 312, 2-[(9S)-7-(4-chlorophenyl)-4,5,13-trimethyl-3-thia-1,8,11,12-tetraazatricyclo[8.3.0.02,6]trideca-2(6),4,7,10,12-pentaen-9-yl]-N-[7-[[2-(2,4-dioxo-1,3-diazepan-1-yl)-1,3-benzothiazol-6-yl]amino]heptyl]acetamide], under 50 µM.

For `Cc1sc2c(c1C)C(c1ccc(Cl)cc1)=N[C@@H](CC(=O)NCCCCCCCNc1ccc(N3CCC(N4CCCC(=O)NC4=O)C3=O)cc1)c1nnc(C)n1-2` (stereo partly drawn) [Example 313, 2-[(9S)-7-(4-chlorophenyl)-4,5,13-trimethyl-3-thia-1,8,11,12-tetraazatricyclo[8.3.0.02,6]trideca-2(6),4,7,10,12-pentaen-9-yl]-N-[7-[4-[3-(2,4-dioxo-1,3-diazepan-1-yl)-2-oxopyrrolidin-1-yl]anilino]heptyl]acetamide], the Kd was under 50 µM. For `Cc1sc2c(c1C)C(c1ccc(Cl)cc1)=N[C@@H](CC(=O)NCCCCCCCNc1ccc(N3CCC4(CCCC(=O)NC4=O)CC3=O)cc1)c1nnc(C)n1-2` (stereo partly drawn) [Example 314, 2-[(9S)-7-(4-chlorophenyl)-4,5,13-trimethyl-3-thia-1,8,11,12-tetraazatricyclo[8.3.0.02,6]trideca-2(6),4,7,10,12-pentaen-9-yl]-N-[7-[4-(4,7,9-trioxo-3,8-diazaspiro[5.6]dodecan-3-yl)anilino]heptyl]acetamide] the value was under 50 µM; for `Cc1sc2c(c1C)C(c1ccc(Cl)cc1)=N[C@@H](CC(=O)NCCCNc1nccc(N3CC4(CC(=O)N(C5CCC(=O)NC5=O)C4=O)C3)n1)c1nnc(C)n1-2` (stereo partly drawn) [Example 315, 2-[(9S)-7-(4-chlorophenyl)-4,5,13-trimethyl-3-thia-1,8,11,12-tetraazatricyclo[8.3.0.02,6]trideca-2(6),4,7,10,12-pentaen-9-yl]-N-[3-[[4-[6-(2,6-dioxopiperidin-3-yl)-5,7-dioxo-2,6-diazaspiro[3.4]octan-2-yl]pyrimidin-2-yl]amino]propyl]acetamide], under 50 µM. The same measure for `Cc1sc2c(c1C)C(c1ccc(Cl)cc1)=N[C@@H](CC(=O)NCCCCCCc1ccc(-c3cn(C4CCCC(=O)NC4=O)nn3)cc1)c1nnc(C)n1-2` (stereo partly drawn) [Example 316, 2-[(9S)-7-(4-chlorophenyl)-4,5,13-trimethyl-3-thia-1,8,11,12-tetraazatricyclo[8.3.0.02,6]trideca-2(6),4,7,10,12-pentaen-9-yl]-N-[6-[4-[1-(2,7-dioxoazepan-3-yl)triazol-4-yl]phenyl]hexyl]acetamide]: under 50 µM; for `Cc1sc2c(c1C)C(c1ccc(Cl)cc1)=N[C@@H](CC(=O)NCCc1ccc(S(=O)(=O)N3CC4(CC(=O)N(C5CCC(=O)NC5=O)C4=O)C3)cc1)c1nnc(C)n1-2` (stereo partly drawn) [Example 317, 2-[(9S)-7-(4-chlorophenyl)-4,5,13-trimethyl-3-thia-1,8,11,12-tetraazatricyclo[8.3.0.02,6]trideca-2(6),4,7,10,12-pentaen-9-yl]-N-[2-[4-[[6-(2,6-dioxopiperidin-3-yl)-5,7-dioxo-2,6-diazaspiro[3.4]octan-2-yl]sulfonyl]phenyl]ethyl]acetamide]: under 50 µM. The same measure for `Cc1sc2c(c1C)C(c1ccc(Cl)cc1)=N[C@@H](CC(=O)NCCCCCCCCn1ccc3c(N4CC5(CC(=O)N(C6CCC(=O)NC6=O)C5=O)C4)ncnc31)c1nnc(C)n1-2` (stereo partly drawn) [Example 318, 2-[(9S)-7-(4-chlorophenyl)-4,5,13-trimethyl-3-thia-1,8,11,12-tetraazatricyclo[8.3.0.02,6]trideca-2(6),4,7,10,12-pentaen-9-yl]-N-[8-[4-[6-(2,6-dioxopiperidin-3-yl)-5,7-dioxo-2,6-diazaspiro[3.4]octan-2-yl]pyrrolo[2,3-d]pyrimidin-7-yl]octyl]acetamide]: under 50 µM. `Cc1sc2c(c1C)C(c1ccc(Cl)cc1)=N[C@@H](CC(=O)NCCCCCCCCn1ccc3c(N4CCC5(CCCC(=O)NC5=O)C4)ncnc31)c1nnc(C)n1-2` (stereo partly drawn) [Example 319, 2-[(9S)-7-(4-chlorophenyl)-4,5,13-trimethyl-3-thia-1,8,11,12-tetraazatricyclo[8.3.0.02,6]trideca-2(6),4,7,10,12-pentaen-9-yl]-N-[8-[4-(6,8-dioxo-2,7-diazaspiro[4.6]undecan-2-yl)pyrrolo[2,3-d]pyrimidin-7-yl]octyl]acetamide] returned a Kd of under 50 µM.

Consider `Cc1sc2c(c1C)C(c1ccc(Cl)cc1)=N[C@@H](CC(=O)NCCCCCCCCOc1ccc(C#N)c(N3CCC4(CCCC(=O)NC4=O)C3)c1)c1nnc(C)n1-2` (stereo partly drawn) [Example 320, 2-[(9S)-7-(4-chlorophenyl)-4,5,13-trimethyl-3-thia-1,8,11,12-tetraazatricyclo[8.3.0.02,6]trideca-2(6),4,7,10,12-pentaen-9-yl]-N-[8-[4-cyano-3-(6,8-dioxo-2,7-diazaspiro[4.6]undecan-2-yl)phenoxy]octyl]acetamide], for which the dissociation constant (Kd) was under 50 µM. The same measure for `Cc1sc2c(c1C)C(c1ccc(Cl)cc1)=N[C@@H](CC(=O)NCCCCCOc1ccc3nc(N4CC5(CC(=O)N(C6CCC(=O)NC6=O)C5=O)C4)sc3c1)c1nnc(C)n1-2` (stereo partly drawn) [Example 321, 2-[(9S)-7-(4-chlorophenyl)-4,5,13-trimethyl-3-thia-1,8,11,12-tetraazatricyclo[8.3.0.02,6]trideca-2(6),4,7,10,12-pentaen-9-yl]-N-[5-[[2-[6-(2,6-dioxopiperidin-3-yl)-5,7-dioxo-2,6-diazaspiro[3.4]octan-2-yl]-1,3-benzothiazol-6-yl]oxy]pentyl]acetamide]: under 50 µM; for `Cc1sc2c(c1C)C(c1ccc(Cl)cc1)=N[C@@H](CC(=O)NCCCCCOc1ccc3nc(N4CCC5(CCCC(=O)NC5=O)C4)sc3c1)c1nnc(C)n1-2` (stereo partly drawn) [Example 322, 2-[(9S)-7-(4-chlorophenyl)-4,5,13-trimethyl-3-thia-1,8,11,12-tetraazatricyclo[8.3.0.02,6]trideca-2(6),4,7,10,12-pentaen-9-yl]-N-[5-[[2-(6,8-dioxo-2,7-diazaspiro[4.6]undecan-2-yl)-1,3-benzothiazol-6-yl]oxy]pentyl]acetamide]: under 50 µM; for `Cc1sc2c(c1C)C(c1ccc(Cl)cc1)=N[C@@H](CC(=O)NCCCCCCc1ccc(C(=O)N3CCC4(CCCC(=O)NC4=O)C3)cc1Cl)c1nnc(C)n1-2` (stereo partly drawn) [Example 323, N-[6-[2-chloro-4-(6,8-dioxo-2,7-diazaspiro[4.6]undecane-2-carbonyl)phenyl]hexyl]-2-[(9S)-7-(4-chlorophenyl)-4,5,13-trimethyl-3-thia-1,8,11,12-tetraazatricyclo[8.3.0.02,6]trideca-2(6),4,7,10,12-pentaen-9-yl]acetamide]: under 50 µM.

The record behind these values is US20250388593A1 (MITSUBISHI TANABE PHARMA CORPORATION, priority 2023, published 2025).
